This passage reports GI50 and TGI results from PubChem BioAssay (NCI).

Values joined by “and” are separate entries in the source; they are usually repeats but may differ in a detail not shown here. Identical values can stand only once.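 Compound exposure: 48 hours, 5 concentrations, 96-well plates. GI50 = concentration required for 50% inhibition of growth. TGI marks complete inhibition of growth.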 Where only a bound is given, the exact number is not on record here.

Among the test systems are NCI-H522 lung; OVCAR-4 ovarian; A498 renal; SN12C renal; SNB-19 CNS; NCI-H23 lung; CAKI-1 renal; HCT-15 colon; KM12 colon.
What all share (test): inhibition of tumour cell growth, NCI panel, 48 h

Consider `COC(=O)C[CH](C(=O)OC)[Ge]([CH3])([CH3])[S]c1ccccc1` (configuration not stated), for which the GI50 with NCI-H522 lung was 2.94 µM; in the experiment with OVCAR-4 ovarian it was 18.1 µM; in the experiment on A498 renal, 19.7 µM; with SN12C renal it was 16 µM; in the experiment with SNB-19 CNS, 19.5 µM; with NCI-H23 lung it was 22.9 µM. Besides, the figures for the GI50 in the experiment with CAKI-1 renal, in the experiment on HCT-15 colon and in the experiment with KM12 colon were 20.8 µM, 13.2 µM and 17 µM, respectively. Moreover, the TGI in the experiment on NCI-H522 lung came out at 10.3 µM; in the experiment on OVCAR-4 ovarian, 72.4 µM; in the experiment with A498 renal, 60.9 µM; with SN12C renal, 32 µM; in the experiment with SNB-19 CNS it was 49.9 µM; in the experiment on NCI-H23 lung, 64.7 µM. Also, the TGI was found to be 47.8 µM in the experiment with CAKI-1 renal, 27.6 µM in the experiment on HCT-15 colon and 46.2 µM in the experiment on KM12 colon.

On to `CCCCCCCCCCCC(=O)OCC1OC(n2cc(F)c(=O)[nH]c2=O)C(NC(=O)OCc2ccccc2)C(O)C1O` (configuration not stated), for which the TGI in the experiment with NCI-H522 lung came to 30.8 µM; with OVCAR-4 ovarian, 63.9 µM; in the experiment on A498 renal, 51.4 µM; with SN12C renal, 34.7 µM; in the experiment with SNB-19 CNS, 75.5 µM; with NCI-H23 lung it was 93.6 µM. Further, the TGI is greater than 100 µM with CAKI-1 renal, 43.5 µM in the experiment on HCT-15 colon and 42.9 µM in the experiment with KM12 colon.

For `S=c1nc(-c2ccccc2)oc(=NC2CCCCC2)n1C1CCCCC1`, the GI50 in the experiment with NCI-H522 lung was 4.8 µM; in the experiment with OVCAR-4 ovarian, 5.56 µM; in the experiment with A498 renal, 3.61 µM; in the experiment with SN12C renal it was 3.94 µM; with SNB-19 CNS, 5.05 µM; in the experiment with NCI-H23 lung it was 4.21 µM. Besides, the figures for the GI50 with CAKI-1 renal, with HCT-15 colon and with KM12 colon were 1.99 µM, 3.35 µM and 3.48 µM, respectively. The TGI stood at 18.3 µM with NCI-H522 lung; 61 µM with OVCAR-4 ovarian; 13 µM in the experiment with A498 renal; 18.7 µM in the experiment on SN12C renal; 17.4 µM with SNB-19 CNS; 19.6 µM in the experiment on NCI-H23 lung. Besides, the TGI in the experiment with CAKI-1 renal was determined as 6.38 µM; in the experiment on HCT-15 colon, 13.5 µM; with KM12 colon, 10.1 µM.

For the compound `COc1ccc2cccc(C(=O)c3ccc(C)c4c3CCC4)c2c1`, the TGI is 64.1 µM with NCI-H522 lung; greater than 100 µM in the experiment with OVCAR-4 ovarian; 83.7 µM in the experiment on A498 renal; greater than 100 µM with SN12C renal; greater than 100 µM in the experiment with SNB-19 CNS; 77 µM in the experiment with NCI-H23 lung. In addition, the TGI with CAKI-1 renal was 80.8 µM; in the experiment with HCT-15 colon it was 53.3 µM; in the experiment with KM12 colon, greater than 100 µM.

Take `C/C1=C\[C@H](C)C[C@H](C)OC(=O)C[C@H](c2ccc(O)cc2)NC(=O)[C@@H](Cc2c(Br)[nH]c3ccccc23)N(C)C(=O)[C@H](C)NC(=O)[C@@H](C)C1`: the GI50 is 0.0344 µM with NCI-H522 lung; 0.0969 µM in the experiment on OVCAR-4 ovarian; 0.0703 µM with A498 renal; 0.0738 µM in the experiment with SN12C renal; 0.0232 µM in the experiment on SNB-19 CNS; 0.114 µM with NCI-H23 lung. Besides, the GI50 in the experiment on CAKI-1 renal is 0.0272 µM; in the experiment with HCT-15 colon it was 0.488 µM. Further, the TGI in the experiment on NCI-H522 lung is 0.908 µM and 1.13 µM; with OVCAR-4 ovarian it was 0.95 µM and 3.11 µM; in the experiment with A498 renal it was 0.137 µM and 0.5 µM; in the experiment on SN12C renal, greater than 45.9 µM; in the experiment with SNB-19 CNS, 0.0568 µM; in the experiment on NCI-H23 lung it was 1.05 µM. Further, the TGI with CAKI-1 renal was 0.2 µM and 0.0985 µM; with HCT-15 colon, 6.01 µM; with KM12 colon it was 39.8 µM.

Consider `N#Cc1cccc(NC(=O)c2ccc(C(=O)O)c(C(=O)c3ccc(C(=O)O)c(C(=O)Nc4cccc(C#N)c4)c3)c2)c1`, for which the TGI in the experiment with NCI-H522 lung, in the experiment on OVCAR-4 ovarian, with A498 renal, in the experiment with SN12C renal, in the experiment with SNB-19 CNS and with NCI-H23 lung was greater than 100 µM in each case. The TGI with CAKI-1 renal, in the experiment on HCT-15 colon and in the experiment on KM12 colon was greater than 100 µM in each case.

As for `Nc1ccc(-c2nc3ccc4[nH]ncc4c3c3c2CCCC3)cc1F`, the GI50 with NCI-H522 lung is 0.989 µM; in the experiment with OVCAR-4 ovarian, 1.69 µM; in the experiment on A498 renal, 0.636 µM; in the experiment with SN12C renal it was 1.96 µM; in the experiment on SNB-19 CNS, 2.48 µM; with NCI-H23 lung, 1.54 µM. Further, the GI50 with CAKI-1 renal was 0.323 µM; in the experiment on HCT-15 colon it was 0.691 µM; with KM12 colon it was 1.11 µM. Further, the TGI came to 6.93 µM in the experiment with NCI-H522 lung; 23.5 µM in the experiment with OVCAR-4 ovarian; 3.24 µM in the experiment on A498 renal; 13.2 µM in the experiment on SN12C renal; 32.1 µM in the experiment on SNB-19 CNS; 7.96 µM in the experiment on NCI-H23 lung. The TGI was 3.64 µM in the experiment with CAKI-1 renal, 8.05 µM in the experiment on HCT-15 colon and 6.3 µM in the experiment on KM12 colon.

Turning to `Cc1cc(C)cc(-n2c3nc(=O)n(C)c(=O)c-3nc3ccccc32)c1`, the TGI in the experiment on NCI-H522 lung is 44.2 µM; in the experiment on OVCAR-4 ovarian, 41.5 µM; in the experiment on A498 renal, greater than 100 µM; with SN12C renal, 76.4 µM; in the experiment on SNB-19 CNS it was 50.9 µM; in the experiment on NCI-H23 lung, 39 µM. In addition, the TGI is 87.3 µM in the experiment with CAKI-1 renal, 73 µM with HCT-15 colon and greater than 100 µM in the experiment on KM12 colon.
